Activity calls are given as the source filed them. No cut-off for these calls is given here.

In assay [1] the target is T1, Calcium-activated potassium channel subunit alpha-1 (Homo sapiens, UniProt Q12791). The assay is described as follows: Inhibition of human KCNMA1 expressed in HEK293 cells assessed as reduction in amplitude current at 10 uM by inside-out configuration based patch clamp method relative to control. The class given is cell-based. Background: The patch-clamp technique gives a direct electrical read-out from membranes.
T1 sequence (Q12791 whole entry): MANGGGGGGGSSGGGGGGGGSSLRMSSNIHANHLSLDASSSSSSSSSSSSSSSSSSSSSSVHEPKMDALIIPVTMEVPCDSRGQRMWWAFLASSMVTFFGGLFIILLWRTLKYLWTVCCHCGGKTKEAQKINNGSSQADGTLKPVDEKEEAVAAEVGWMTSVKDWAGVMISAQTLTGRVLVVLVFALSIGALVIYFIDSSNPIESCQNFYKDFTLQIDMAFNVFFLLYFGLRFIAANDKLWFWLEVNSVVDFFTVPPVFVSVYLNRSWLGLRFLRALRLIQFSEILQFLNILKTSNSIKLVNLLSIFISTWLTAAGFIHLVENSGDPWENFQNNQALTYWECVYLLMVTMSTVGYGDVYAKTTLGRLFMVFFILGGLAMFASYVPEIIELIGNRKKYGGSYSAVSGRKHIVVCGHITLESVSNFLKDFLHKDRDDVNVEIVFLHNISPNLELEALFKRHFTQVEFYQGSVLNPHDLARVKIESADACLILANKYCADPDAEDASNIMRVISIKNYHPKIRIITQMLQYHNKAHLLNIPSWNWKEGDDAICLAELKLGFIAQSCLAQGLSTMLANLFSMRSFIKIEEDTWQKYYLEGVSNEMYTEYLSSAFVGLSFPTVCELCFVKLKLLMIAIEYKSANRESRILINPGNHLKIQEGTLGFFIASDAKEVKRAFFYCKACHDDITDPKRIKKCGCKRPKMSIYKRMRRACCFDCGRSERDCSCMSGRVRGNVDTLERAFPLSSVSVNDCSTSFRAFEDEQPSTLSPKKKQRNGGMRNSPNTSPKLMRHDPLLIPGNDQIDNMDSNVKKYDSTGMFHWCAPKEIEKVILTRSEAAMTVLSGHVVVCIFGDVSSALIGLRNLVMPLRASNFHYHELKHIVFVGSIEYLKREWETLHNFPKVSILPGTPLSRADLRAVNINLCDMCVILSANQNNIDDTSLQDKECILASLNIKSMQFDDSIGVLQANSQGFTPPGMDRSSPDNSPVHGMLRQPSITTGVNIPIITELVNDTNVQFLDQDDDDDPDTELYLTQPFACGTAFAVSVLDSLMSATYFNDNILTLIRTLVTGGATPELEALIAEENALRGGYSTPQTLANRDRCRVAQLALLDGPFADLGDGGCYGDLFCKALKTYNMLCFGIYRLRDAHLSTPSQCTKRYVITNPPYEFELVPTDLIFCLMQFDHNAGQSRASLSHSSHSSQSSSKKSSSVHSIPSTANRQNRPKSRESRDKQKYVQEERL

For assay [2], the target named is T1, Calcium-activated potassium channel subunit alpha-1. Put plainly: Inhibition of human KCNMA1 expressed in HEK293 cells assessed as decrease in maximal conductance at 0.3 to 10 uM by inside-out configuration based patch clamp method. Conditions: dose 0.3-10 µM. In kind it is cell-based.
The target is the same in assay [3]. Put plainly: Inhibition of human KCNMA1 expressed in HEK293 cells assessed as reduction in unitary conductance at 3 uM (reference value: 242+/-10 pS). The class given is cell-based.
Assay [4] shares this target. Put plainly: Inhibition of human KCNMA1 expressed in HEK293 cells assessed as increase in mean closed times at 3 uM at -40 mV (reference value: 33=/-12 ms). The class given is cell-based.
The target is the same in assay [5]. Put plainly: Reversible inhibition of human KCNMA1 expressed in HEK293 cells at 1 uM by whole cell configuration based patch clamp method.
Assay [6] shares this target. Put plainly: Inhibition of human KCNMA1 expressed in HEK293 cells assessed as shift in activation curve to depolarized voltage (deltaV1/2) at 0.3 to 10 uM by inside-out configuration based patch clamp method. Conditions: dose 0.3-10 µM. The class given is cell-based.
For assay [7] the target is unchanged. The assay is described as follows: Inhibition of human KCNMA1 expressed in HEK293 cells assessed effect on deactivation kinetics at 1 uM by inside-out configuration based patch clamp method. The class given is cell-based.
For assay [8] the target is unchanged. Put plainly: Inhibition of human KCNMA1 expressed in HEK293 cells assessed as reduction in maximal conductance at 1 uM by whole cell configuration based patch clamp method.
For assay [9] the target is unchanged. Put plainly: Inhibition of human KCNMA1 expressed in HEK293 cells assessed as reduction in voltage activation kinetics at 1 uM by whole cell configuration based patch clamp method.
Assay [10] shares this target. The assay is described as follows: Inhibition of human KCNMA1 expressed in HEK293 cells assessed as shift to depolarized potential at 1 uM by whole cell configuration based patch clamp method.
Assay [11] has the same target. Put plainly: Inhibition of human KCNMA1 expressed in HEK293 cells assessed as reduction in open probability at 3 uM at -40 mV relative to control. The class given is cell-based.
For assay [12] the target is unchanged. The assay is described as follows: Inhibition of human KCNMA1 expressed in HEK293 cells assessed as decrease in open probability at 3 uM under single channel current. The class given is cell-based.
Assay [13] shares this target. The assay is described as follows: Inhibition of human KCNMA1 expressed in HEK293 cells assessed as reduction in amplitude current at 1 uM by inside-out configuration based patch clamp method. The class given is cell-based.
Assay [14] has the same target. The assay is described as follows: Inhibition of human KCNMA1 expressed in HEK293 cells assessed increase in time constant value of voltage activation at 1 uM by inside-out configuration based patch clamp method. In kind it is cell-based.
Assay [15] has the same target. The assay is described as follows: Inhibition of human KCNMA1 expressed in HEK293 cells assessed as reduction in 100+ mV pulse elicited current by inside-out configuration based patch clamp method. In kind it is cell-based.

`C=C(C)[C@@H]1CCC(C)=C[C@H]1c1c(O)cc(CCCCC)cc1O` [CANNABIDIOL]: the inhibition worked out at 100% in assay [1] and 87.4% in assay [11]. The inhibition entry in assay [2], in assay [5], in assay [6], in assay [8], in assay [9] and in assay [10] was “Active” throughout. Further, the inhibition entry in [12], in assay [13] and in [14] was “Active” each time. Also, the Time in [3] was found to be 182 pS; in assay [4], 9.11e-05 h. Moreover, the inhibition result in assay [7] was “inactive”. The IC50 in assay [15] was found to be 280 nM.

In general, inhibition refers to the relative decrease from the control value, in per cent. By IC50 is commonly meant the midpoint of a concentration-inhibition curve.

The values above are taken from ChEMBL document CHEMBL5634184, “Direct Inhibition of BK Channels by Cannabidiol, One of the Principal Therapeutic Cannabinoids Derived from Cannabis sativa” (J Nat Prod, 2024).
